Measured values: patent US7622499B2, “β-Benzyloxyaspartate derivatives with photosensitive groups” (Suntory Holdings Limited, priority 2003, dated 2009)

Columns and labels:
EAAT1-5 subtypes = conditions: cited from earlier work; for inhibitory activity compared with L-TBOA: prior application of the inventors
glutamate receptor = conditions: prior art statement; cited from earlier work
[1] = Photolysis with UV lamp, photolysis rate measured by HPLC; type: physicochemical; conditions: buffer, pH 7.4
Method: Photolysis was conducted by the known method (Takaoka, K. et al., Bioorganic & Medicinal Chemistry Letters, 13, 965-970, 2003), and the obtained samples were quantified by HPLC or a glutamate uptake assay.
The caged inhibitor was dissolved to 100 μM in a PBS(+) solution [140 mM NaCl, 5 mM KCl, 8 mM Na2HPO4, 1.5 mM KH2PO4, 1 mM CaCl2, 1 mM MgCl2, pH 7.4], and a 300 μL portion of the solution was placed in a quartz cuvette with a 1 mm optical path and situated at a location at 10 cm from a UV lamp (Spectroline ENF-260C/J, product of Spectronics Co.), and then covered with a black box and irradiated with 365 nm UV rays at room temperature for 1-120 minutes. The luminous energy under these conditions was approximately 0.5 J/cm^2 with 10 minutes of irradiation. The irradiated sample was quantified by HPLC.
The sample was subjected to UV irradiation for a prescribed period and then analyzed by HPLC [column: SP-120-5-ODS-AP (Daiso CO.); eluent, CH3CN:H2O:TFA=32:68:0.1 or gradient from CH3CN:H2O:TFA=32:68:0.1 to 50:50:0.1], and the concentration was determined from the ratio of UV absorption at 254 nm with respect to an internal substance (3′,4′-dimethoxyacetophenone, 10 μM). The percentage with respect to the concentration prior to irradiation was calculated and graphed, and the half-life was determined.

| half-life (photolysis, decay of caged compound) [1] [min] | SMILES | inhibitory activity compared with L-TBOA (EAAT1-5 subtypes) | other results |
| --- | --- | --- | --- |
| – | N[C@H](C(=O)O)[C@H](OCc1ccccc1)C(=O)O [L-TBOA, L-threo-β-benzyloxyaspartate] | – | blocker activity on glutamate transporters (EAAT1-5 subtypes; prior art statement): Particularly powerful blocker activity; affinity for glutamate receptor compared to existing inhibitors (glutamate receptor): lower affinity for glutamate receptor compared to existing inhibitors |
| 7.8 | O=C(O)COc1cc2oc(=O)cc(COC(=O)N[C@H](C(=O)O)[C@H](OCc3ccccc3)C(=O)O)c2cc1OCC(=O)O [5b, (2S,3S)-3-benzyloxy-N-[6,7-bis(carboxymethoxy)coumarin-4-ylmethoxy]carbonylaspartate] | – | – |
| – | COc1ccc(C(=O)Nc2cccc(CO[C@H](C(=O)O)[C@H](N)C(=O)O)c2)cc1 [PMB-TBOA] | more powerful inhibitory activity than L-TBOA | – |
| 19 | O=C(O)COc1ccc2c(COC(=O)N[C@H](C(=O)O)[C@H](OCc3ccccc3)C(=O)O)cc(=O)oc2c1 [5a, (2S,3S)-3-benzyloxy-N-[7-(carboxymethoxy)coumarin-4-ylmethoxy]carbonylaspartate] | – | – |
| – | N[C@H](C(=O)O)[C@H](OCc1cccc(NC(=O)c2ccc(C(F)(F)F)cc2)c1)C(=O)O [TFB-TBOA] | more powerful inhibitory activity than L-TBOA | – |
